This test relates to L1210 leukemia ip in BDF1 mice, survival T/C. The experiment in a line: NCI In Vivo Anticancer Drug Screen. Data for tumor model L1210 Leukemia (intraperitoneal) in B6D2F1 (BDF1) mice. To be noted: endpoint: mean survival time, higher = longer survival. The gist of the method: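 Antitumor effect is assessed in tumor-bearing animals. Survival in the compound arm is compared with a vehicle-dosed control arm and expressed as their quotient.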

[1] abbreviates: dose: 100.0 mg/kg/injection, schedule: Q01DX009 (ip), vehicle: Klucel (hydroxypropylcellulose) (HPC).
Where [2] appears, read: dose: 100.0 mg/kg/injection, schedule: Q04DX003 (ip), vehicle: Klucel (hydroxypropylcellulose) (HPC).
Where [3] appears, read: dose: 200.0 mg/kg/injection, schedule: Q01DX009 (ip), vehicle: Klucel (hydroxypropylcellulose) (HPC).
[4] abbreviates: dose: 200.0 mg/kg/injection, schedule: Q04DX003 (ip), vehicle: Klucel (hydroxypropylcellulose) (HPC).
The mark [5] stands for this setting: dose: 400.0 mg/kg/injection, schedule: Q01DX009 (ip), vehicle: Klucel (hydroxypropylcellulose) (HPC).
Setting [6] is: dose: 400.0 mg/kg/injection, schedule: Q04DX003 (ip), vehicle: Klucel (hydroxypropylcellulose) (HPC).
Where [7] appears, read: dose: 100.0 mg/kg/injection, schedule: Q01DX001 (ip), vehicle: carboxymethylcellulose (CMC).
Setting [8] is: dose: 200.0 mg/kg/injection, schedule: Q01DX001 (ip), vehicle: carboxymethylcellulose (CMC).
Setting [9] is: dose: 400.0 mg/kg/injection, schedule: Q01DX001 (ip), vehicle: carboxymethylcellulose (CMC).

The structures appear in SMILES notation. Where “and” joins values, the source holds several entries; their conditions need not be identical. Identical values can stand only once. Toxic doses and inconclusive results are not listed.

Consider `O=c1cc(CO)[nH]cc1O`, for which the T/C (dose: 25.0 mg/kg/injection, schedule: Q01DX Z (ip), vehicle: methylcellulose (MC)) was 102 % of control; the T/C (dose: 50.0 mg/kg/injection, schedule: Q01DX015 (ip), vehicle: carboxymethylcellulose (CMC)) is 103 % of control; the T/C (dose: 50.0 mg/kg/injection, schedule: Q01DX Z (ip), vehicle: methylcellulose (MC)) was 96 % of control; the T/C (dose: 62.5 mg/kg/injection, schedule: Q01DX015 (ip), vehicle: saline) is 115 % of control; the T/C (dose: 78.0 mg/kg/injection, schedule: Q01DX Z (ip), vehicle: carboxymethylcellulose (CMC)) is 98 % of control and 112 % of control; the T/C (dose: 78.0 mg/kg/injection, schedule: Q01DX Z (ip), vehicle: saline) is 96 % of control and 114 % of control. Also, the T/C reads like this: (dose: 100.0 mg/kg/injection, schedule: Q01DX001 (ip), vehicle: Klucel (hydroxypropylcellulose) (HPC)) 106 % of control; under setting [1], 110 % of control and 121 % of control; (dose: 100.0 mg/kg/injection, schedule: Q01DX009 (ip), vehicle: saline) 121 % of control; (dose: 100.0 mg/kg/injection, schedule: Q01DX015 (ip), vehicle: carboxymethylcellulose (CMC)) 108 % of control; (dose: 100.0 mg/kg/injection, schedule: Q01DX Z (ip), vehicle: methylcellulose (MC)) 101 % of control; under setting [2], 110 % of control. Besides, the T/C is 106 % of control (dose: 100.0 mg/kg/injection, schedule: Q04DX003 (ip), vehicle: saline); 104 % of control and 121 % of control (dose: 117.0 mg/kg/injection, schedule: Q01DX Z (ip), vehicle: carboxymethylcellulose (CMC)); 110 % of control (dose: 117.0 mg/kg/injection, schedule: Q01DX Z (ip), vehicle: methylcellulose (MC)); 110 % of control and 120 % of control (dose: 117.0 mg/kg/injection, schedule: Q01DX Z (ip), vehicle: saline); 104 % of control and 106 % of control (dose: 125.0 mg/kg/injection, schedule: Q01DX001 (ip), vehicle: carboxymethylcellulose (CMC)); 113 % of control (dose: 125.0 mg/kg/injection, schedule: Q01DX015 (ip), vehicle: saline). For the same compound, the T/C (dose: 125.0 mg/kg/injection, schedule: Q## X001 (ip), vehicle: carboxymethylcellulose (CMC)) is 100 % of control; the T/C (dose: 175.0 mg/kg/injection, schedule: Q01DX Z (ip), vehicle: carboxymethylcellulose (CMC)) was 109 % of control; the T/C (dose: 175.0 mg/kg/injection, schedule: Q01DX Z (ip), vehicle: methylcellulose (MC)) was 96 % of control; the T/C (dose: 175.0 mg/kg/injection, schedule: Q01DX Z (ip), vehicle: saline) was 113 % of control; the T/C (dose: 177.0 mg/kg/injection, schedule: Q01DX009 (ip), vehicle: Klucel (hydroxypropylcellulose) (HPC)) was 121 % of control; the T/C (dose: 200.0 mg/kg/injection, schedule: Q01DX001 (ip), vehicle: Klucel (hydroxypropylcellulose) (HPC)) was 110 % of control. The T/C is 151 % of control under setting [3]; 122 % of control under setting [4]; 115 % of control (dose: 200.0 mg/kg/injection, schedule: Q04DX003 (ip), vehicle: saline); 97 % of control and 101 % of control (dose: 250.0 mg/kg/injection, schedule: Q01DX001 (ip), vehicle: carboxymethylcellulose (CMC)); 159 % of control (dose: 250.0 mg/kg/injection, schedule: Q01DX015 (ip), vehicle: saline); 106 % of control (dose: 250.0 mg/kg/injection, schedule: Q## X001 (ip), vehicle: carboxymethylcellulose (CMC)). In addition, the T/C is 124 % of control (dose: 263.0 mg/kg/injection, schedule: Q01DX Z (ip), vehicle: carboxymethylcellulose (CMC)); 110 % of control (dose: 263.0 mg/kg/injection, schedule: Q01DX Z (ip), vehicle: methylcellulose (MC)); 106 % of control (dose: 264.0 mg/kg/injection, schedule: Q01DX008 (ip), vehicle: saline); 101 % of control (dose: 264.0 mg/kg/injection, schedule: Q01DX009 (ip), vehicle: saline); 116 % of control (dose: 393.0 mg/kg/injection, schedule: Q01DX Z (ip), vehicle: methylcellulose (MC)); 112 % of control (dose: 400.0 mg/kg/injection, schedule: Q01DX001 (ip), vehicle: Klucel (hydroxypropylcellulose) (HPC)). For the same compound, the T/C reads like this: (dose: 400.0 mg/kg/injection, schedule: Q01DX008 (ip), vehicle: saline) 116 % of control; under setting [5], 156 % of control; under setting [6], 122 % of control; (dose: 400.0 mg/kg/injection, schedule: Q04DX003 (ip), vehicle: saline) 112 % of control; (dose: 500.0 mg/kg/injection, schedule: Q01DX001 (ip), vehicle: carboxymethylcellulose (CMC)) 95 % of control and 111 % of control; (dose: 500.0 mg/kg/injection, schedule: Q01DX015 (ip), vehicle: saline) 165 % of control. Moreover, the T/C (dose: 500.0 mg/kg/injection, schedule: Q01DX Z (ip), vehicle: methylcellulose (MC)) was 106 % of control; the T/C (dose: 500.0 mg/kg/injection, schedule: Q## X001 (ip), vehicle: carboxymethylcellulose (CMC)) was 101 % of control; the T/C (dose: 590.0 mg/kg/injection, schedule: Q01DX Z (ip), vehicle: carboxymethylcellulose (CMC)) is 105 % of control; the T/C (dose: 625.0 mg/kg/injection, schedule: Q01DX Z (ip), vehicle: methylcellulose (MC)) was 108 % of control; the T/C (dose: 750.0 mg/kg/injection, schedule: Q01DX Z (ip), vehicle: methylcellulose (MC)) is 120 % of control; the T/C (dose: 1000.0 mg/kg/injection, schedule: Q01DX001 (ip), vehicle: carboxymethylcellulose (CMC)) was 102 % of control and 105 % of control. Moreover, the T/C (dose: 1000.0 mg/kg/injection, schedule: Q## X001 (ip), vehicle: carboxymethylcellulose (CMC)) is 108 % of control.
Take `CC12CC3CC(C)(C1)CC(SCCN=C(N)CCl)(C3)C2`: the T/C was 105 % of control (dose: 10.0 mg/kg/injection, schedule: Q04DX002 (ip), vehicle: Klucel (hydroxypropylcellulose) (HPC)); 102 % of control (dose: 20.0 mg/kg/injection, schedule: Q04DX002 (ip), vehicle: Klucel (hydroxypropylcellulose) (HPC)); 110 % of control (dose: 40.0 mg/kg/injection, schedule: Q04DX002 (ip), vehicle: Klucel (hydroxypropylcellulose) (HPC)).
In the case of `Nc1cc2c(cc1Cl)-c1ccccc1/C2=N\O`, the T/C is, setting by setting: under setting [7], 110 % of control; under setting [8], 98 % of control; under setting [9], 102 % of control.
For the compound `CCCCCCCC(=O)N(CCCCC)CCCCC`, the T/C under setting [7] was 99 % of control; the T/C (dose: 100.0 mg/kg/injection, schedule: Q01DX009 (ip), vehicle: carboxymethylcellulose (CMC)) is 93 % of control and 101 % of control; the T/C (dose: 100.0 mg/kg/injection, schedule: Q04DX002 (ip), vehicle: carboxymethylcellulose (CMC)) is 97 % of control; the T/C (dose: 100.0 mg/kg/injection, schedule: Q04DX003 (ip), vehicle: carboxymethylcellulose (CMC)) was 101 % of control; the T/C under setting [8] is 96 % of control; the T/C (dose: 200.0 mg/kg/injection, schedule: Q01DX009 (ip), vehicle: carboxymethylcellulose (CMC)) is 97 % of control and 90 % of control. In addition, the T/C reads like this: (dose: 200.0 mg/kg/injection, schedule: Q04DX002 (ip), vehicle: carboxymethylcellulose (CMC)) 107 % of control; (dose: 200.0 mg/kg/injection, schedule: Q04DX003 (ip), vehicle: carboxymethylcellulose (CMC)) 98 % of control; under setting [9], 91 % of control; (dose: 400.0 mg/kg/injection, schedule: Q04DX002 (ip), vehicle: carboxymethylcellulose (CMC)) 96 % of control; (dose: 400.0 mg/kg/injection, schedule: Q04DX003 (ip), vehicle: carboxymethylcellulose (CMC)) 102 % of control.
For the compound `OC1CCCC/C1=C/c1ccccc1` (stereo not given), the T/C by setting is: under setting [1], 101 % of control; under setting [2], 103 % of control; under setting [3], 101 % of control; under setting [4], 101 % of control; under setting [5], 101 % of control; under setting [6], 95 % of control.
As to `COCC1OC(Nc2ccccc2)C(OC)C(OC)C1OC` (stereo not given), the T/C by setting is: (dose: 100.0 mg/kg/injection, schedule: Q04DX003 (ip), vehicle: saline with Tween-80) 89 % of control; (dose: 200.0 mg/kg/injection, schedule: Q04DX003 (ip), vehicle: saline with Tween-80) 94 % of control; (dose: 400.0 mg/kg/injection, schedule: Q04DX003 (ip), vehicle: saline with Tween-80) 89 % of control.

These data come from PubChem BioAssay AID248 (DTP/NCI, 2004).
